Experimental findings from patent US20190151294A1, “TREATMENT OF ALCOHOLISM AND DEPRESSION AND/OR DYSPHORIC MOOD USING IBUDILAST” (MEDICINOVA, INC., priority 2016, published 2019) are described below.

Data set [1] concerns high-alcohol-drinking (HAD1) rats. Briefly: Voluntary ethanol consumption in high-alcohol-drinking (HAD1) rats. It is filed as in vivo, rat. As to conditions: for dose dependence of effect on ethanol intake (2-way mixed ANOVA): p<0.001. As to the method:
To perform the study, adult male P and HAD1 rats were randomly assigned to receive one of the following four doses of ibudilast—0 mg/Kg, 3 mg/Kg, 6 mg/Kg, or 9 mg/Kg with eight rats assigned to each dose. Each dosing group was balanced to average a 2 h/day ethanol (15% v/v) intake. Water was concurrently available to the rats and Mazola corn oil was used as the vehicle.
The study was divided into four test phases. In the maintenance test phase rats in the treatment group were injected ibudilast subcutaneously (2 mL/kg s.c.), using standard solutions that deliver 3 mg/Kg, 6 mg/Kg or 9 mg/Kg of ibudilast, 60 min before each ethanol test session and the same dose of ibudilast was administered subcutaneously to the rats 8 hours later. Rats in the control group, however, are administered 2 mL/Kg Mazola corn oil subcutaneously. This protocol was carried out for 4 consecutive days. Following the maintenance test phase, is a two week no drug recovery phase during which rats are permitted access to ethanol and the amount of ethanol consumed by the rats was measured.
The recovery phase is followed by a two week forced ethanol abstinence phase. Following forced abstinence, the effects of ibudilast on ethanol drinking were examined by re-introducing ethanol to rats for a period of 5 consecutive days (i.e., the Relapse Test phase). Each animal received the same dose of ibudilast during maintenance and relapse test phases.

Data set [2] concerns non-treatment-seeking individuals with AUD. Description: Phase 1b study: cue reactivity assessment (CR). It is filed as in vivo, human. As to conditions: 50 mg BID. From the text: The present study also assessed the reactivity of participants to alcohol cues at each dose of medication such that participants served as their own controls. […] The CR assessments followed well-established procedures and participants received standardized instructions about the assessment as they became acclimated to the psychophysiological monitors.
CR assessment sessions began with a 3-minute relaxation period, in which participants were asked to sit quietly and do nothing. Participants then held and smelled a glass of water for 3 minutes as a standard procedure to control for the effects of simple exposure to any potable liquid, followed by a second 3-minute relaxation period. Next, each participant held and smelled a glass of their preferred alcoholic beverage for three minutes. During each trial, the participant was asked to sniff the beverage for 5 consecutive seconds upon hearing a tone sound. Thirteen tone sounds were administered during each 3-minute block of time. […]
Following each 3 minute exposure to alcohol, each participant rated his/her urge to drink alcohol using the 11-point Likert scale (e.g., “none at all” to “extremely strong urge”). Heart rate (beats per minute; BPM) and blood pressure (systolic, diastolic, and mean arterial pressure [MAP]) were monitored continuously using a Dynamap Adult Vital Signs Monitor and values were averaged over each 3-minute trial. […]

As for `CC(C)C(=O)c1c(C(C)C)nn2ccccc12` [ibudilast, Ibudilast], the “reduction of ethanol intake” value is “about 50%” in data set [1] (HAD1 rats, 5-day Relapse Test phase) and “approximately 50%” in data set [1] (HAD1 rats, maintenance test phase, 4 days, s.c. twice daily, vs vehicle). Besides, the “dose dependence of effect on ethanol intake (2-way mixed ANOVA)” value in data set [1] (HAD1 rats, Relapse Test phase) was “dose dependent reduction in ethanol intake”; in data set [1] (HAD1 rats, maintenance test phase, 0, 3, 6, 9 mg/Kg), “dose dependent reduction of ethanol intake”. In data set [1] (HAD1 rats, p=0.023, data not shown), the “time course of reduced ethanol intake (Dose x Day interaction)” value is “most robust on the first day”. Moreover, the 24-hour food intake result in data set [1] (HAD rats, especially at the 9 mg/Kg dose, effect diminished over the 5-day test phase) is given as “transitory reductions”. In addition, the “cue-induced AUQ craving” value in data set [2] (day 6 alcohol cue-exposure) was “did not affect”. Also, in data set [2] (p=0.07), the “positive mood during cue reactivity” value is “increased positive mood”.
